{"source": "ChEMBL document CHEMBL4732126", "about": "“Design, synthesis, and biodistribution studies of new analogues of marine alkaloids: Potent in vitro and in vivo fungicidal agents against Candida spp” (Eur J Med Chem, 2021)", "key": {"Pichia kudriavzevii": {"test_system": "Pichia kudriavzevii", "test": "Antifungal activity against Candida krusei ATCC 34135 assessed as reduction in fungal growth incubated for 48 hrs by broth microdilution method", "format": "functional"}, "Candida albicans [1]": {"test_system": "Candida albicans", "test": "Fungicidal activity against Candida albicans isolate 5 assessed as fungal killing incubated for 48 hrs followed by plating on SD agar plate", "format": "functional", "conditions": "read-out: MFC99.9"}, "[2]": {"test": "Toxicity in Swiss mouse assessed as body weight at 1 mg/kg, ip measured after 24 hrs (reference value: 36.25 +/- 0.31 g)", "format": "organism-based", "conditions": "in vivo"}, "[3]": {"test": "Toxicity in Swiss mouse assessed as ataxia at 20 mg/kg, ip measured after 30 mins", "format": "organism-based", "conditions": "in vivo, 0.5 h"}, "Nakaseomyces glabratus [4]": {"test_system": "Nakaseomyces glabratus", "test": "Disruption of cell membrane in Candida glabrata ATCC 2001 assessed as increase in intracellular leakage at MIC incubated for 24 hrs by UV spectrophotometric analysis", "format": "cell-based"}, "Candida albicans [5]": {"test_system": "Candida albicans", "test": "In vivo antifungal activity in Swiss mouse infected with Candida albicans ATCC 10231 assessed as reduction in fungal load in spleen at 1 mg/kg, ip administered at 2, 24 and 48 hrs post-infection and measured per gm of organ at 24 hrs post-last dose (reference value: 2.34)", "format": "functional", "conditions": "time 72 hrs"}, "[6]": {"test": "Toxicity in Swiss mouse assessed as relative kidney weight at 1 mg/kg, ip measured after 24 hrs (reference value: 14.91 +/- 0.99 g)", "format": "organism-based", "conditions": "in vivo"}, "[7]": {"test": "Toxicity in Swiss mouse assessed as relative lung weight at 3 mg/kg, ip measured after 24 hrs (reference value: 6.35 +/- 0.68 g)", "format": "organism-based", "conditions": "in vivo"}, "Candida albicans [8]": {"test_system": "Candida albicans", "test": "Fungicidal activity against Candida albicans ATCC 10231 assessed as fungal killing incubated for 48 hrs followed by plating on SD agar plate", "format": "functional", "conditions": "read-out: MFC99.9"}, "[9]": {"test": "Toxicity in Swiss mouse infected with Candida albicans ATCC 10231 assessed as effect on spleen weight at 10 mg/kg, ip administered at 2, 24 and 48 hrs post-infection and measured at 24 hrs after last dose", "format": "organism-based", "conditions": "in vivo, 72 h"}, "[10]": {"test": "Toxicity in Swiss mouse assessed as relative liver weight at 3 mg/kg, ip measured after 24 hrs (reference value: 49.42 +/- 7.17 g)", "format": "organism-based", "conditions": "in vivo"}, "Candida albicans [11]": {"test_system": "Candida albicans", "test": "Antibiofilm activity against Candida albicans ATCC 10231 assessed as reduction in mature biofilm incubated for 48 hrs by crystal violet staining based spectrophotometric analysis relative to control", "format": "functional, organism-based", "conditions": "dose 0.48-125 µg/ml"}, "Candida albicans [12]": {"test_system": "Candida albicans", "test": "In vivo antifungal activity in Swiss mouse infected with Candida albicans ATCC 10231 assessed as reduction in fungal load in liver at 1 mg/kg, ip administered at 2, 24 and 48 hrs post-infection and measured per gm of organ at 24 hrs post-last dose (reference value: 1.80)", "format": "functional", "conditions": "time 72 hrs"}, "[13]": {"test": "Toxicity in Swiss mouse assessed as relative heart weight at 1 mg/kg, ip measured after 24 hrs (reference value: 4.75 +/- 0.60 g)", "format": "organism-based", "conditions": "in vivo"}, "Candida albicans [14]": {"test_system": "Candida albicans", "test": "Fungicidal activity against Candida albicans isolate 4 assessed as fungal killing incubated for 48 hrs followed by plating on SD agar plate", "format": "functional", "conditions": "read-out: MFC99.9"}, "[15]": {"test": "Toxicity in Swiss mouse assessed as effect on heart at 0.5 to 10 mg/kg, ip measured after 24 hrs by macroscopic analysis", "format": "organism-based", "conditions": "in vivo, dose 0.5-10 mg/kg"}, "Candida albicans [16]": {"test_system": "Candida albicans", "test": "Antifungal activity against Candida albicans ATCC 10231 assessed as reduction in fungal growth incubated for 48 hrs by broth microdilution method", "format": "functional"}, "Candida albicans [17]": {"test_system": "Candida albicans", "test": "Antifungal activity against Candida albicans isolate 1 assessed as reduction in fungal growth incubated for 48 hrs by broth microdilution method", "format": "functional"}, "Candida albicans [18]": {"test_system": "Candida albicans", "test": "Disruption of cell membrane in Candida albicans ATCC 10231 assessed as increase in number of invagination at 2 times of MIC incubated for 1 hr by SEM analysis"}, "Candida albicans [19]": {"test_system": "Candida albicans", "test": "In vivo antifungal activity in Swiss mouse infected with Candida albicans ATCC 10231 assessed as reduction in fungal load in spleen at 0.5 mg/kg, ip administered at 2, 24 and 48 hrs post-infection and measured per gm of organ at 24 hrs post-last dose (reference value: 2.34)", "format": "functional", "conditions": "time 72 hrs"}, "Candida albicans [20]": {"test_system": "Candida albicans", "test": "In vivo antifungal activity in Swiss mouse infected with Candida albicans ATCC 10231 assessed as reduction in fungal load in liver at 0.5 mg/kg, ip administered at 2, 24 and 48 hrs post-infection and measured per gm of organ at 24 hrs post-last dose (reference value: 1.80)", "format": "functional", "conditions": "time 72 hrs"}, "[21]": {"test": "Toxicity in Swiss mouse assessed as relative spleen weight at 20 mg/kg, ip measured after 24 hrs (reference value: 4.02 +/- 0.59 g)", "format": "organism-based", "conditions": "in vivo"}, "[22]": {"test": "Toxicity in Swiss mouse assessed as relative lung weight at 10 mg/kg, ip measured after 24 hrs (reference value: 6.35 +/- 0.68 g)", "format": "organism-based", "conditions": "in vivo"}, "Candida albicans [23]": {"test_system": "Candida albicans", "test": "Antifungal activity against Candida albicans isolate 11 assessed as reduction in fungal growth incubated for 48 hrs by broth microdilution method", "format": "functional"}, "[24]": {"test": "Toxicity in Swiss mouse assessed as relative lung weight at 0.5 mg/kg, ip measured after 24 hrs (reference value: 6.35 +/- 0.68 g)", "format": "organism-based", "conditions": "in vivo"}, "Candida tropicalis": {"test_system": "Candida tropicalis", "test": "Disruption of cell membrane in Candida tropicalis ATCC 28707 assessed as increase in intracellular leakage at MIC incubated for 24 hrs by UV spectrophotometric analysis", "format": "cell-based"}, "[25]": {"test": "Toxicity in Swiss mouse assessed as relative liver weight at 1 mg/kg, ip measured after 24 hrs (reference value: 49.42 +/- 7.17 g)", "format": "organism-based", "conditions": "in vivo"}, "[26]": {"test": "Toxicity in Swiss mouse assessed as effect on lung at 0.5 to 10 mg/kg, ip measured after 24 hrs by macroscopic analysis", "format": "organism-based", "conditions": "in vivo, dose 0.5-10 mg/kg"}, "[27]": {"test": "Toxicity in Swiss mouse infected with Candida albicans ATCC 10231 assessed as effect on liver weight at 10 mg/kg, ip administered at 2, 24 and 48 hrs post-infection and measured at 24 hrs after last dose", "format": "organism-based", "conditions": "in vivo, 72 h"}, "Candida albicans [28]": {"test_system": "Candida albicans", "test": "Fungicidal activity against Candida albicans isolate 1 assessed as fungal killing incubated for 48 hrs followed by plating on SD agar plate", "format": "functional", "conditions": "read-out: MFC99.9"}, "Candida albicans [29]": {"test_system": "Candida albicans", "test": "Antifungal activity against Candida albicans ATCC 10231 assessed as reduction in fungal growth incubated for 48 hrs in presence of ergosterol by broth microdilution method", "format": "functional"}, "Candida albicans [30]": {"test_system": "Candida albicans", "test": "Fungicidal activity against Candida albicans isolate 11 assessed as fungal killing incubated for 48 hrs followed by plating on SD agar plate", "format": "functional", "conditions": "read-out: MFC99.9"}, "Nakaseomyces glabratus [31]": {"test_system": "Nakaseomyces glabratus", "test": "Fungicidal activity against Candida glabrata ATCC 2001 assessed as fungal killing incubated for 48 hrs followed by plating on SD agar plate", "format": "functional", "conditions": "read-out: MFC99.9"}, "[32]": {"test": "Toxicity in Swiss mouse assessed as relative lung weight at 1 mg/kg, ip measured after 24 hrs (reference value: 6.35 +/- 0.68 g)", "format": "organism-based", "conditions": "in vivo"}, "[33]": {"test": "Toxicity in Swiss mouse infected with Candida albicans ATCC 10231 assessed as effect on body weight at 0.5 to 1 mg/kg, ip administered at 2, 24 and 48 hrs post-infection and measured at 24 hrs after last dose", "format": "organism-based", "conditions": "in vivo, 72 h, dose 0.5-1 mg/kg"}}, "note": "Active and inactive are the calls of the source. The rule behind the calls is not given here.", "data": [{"smiles": "[Cl-].[N-]=[N+]=NCCCCCCCCCCCCOCCCc1ccc[n+](Cc2ccccc2)c1", "values": [{"measurement": "MIC", "setting": "Pichia kudriavzevii", "value": 3.9, "unit": "µg/mL"}, {"measurement": "MFC", "setting": "Candida albicans [1]", "value": 7.8, "unit": "µg/mL"}, {"measurement": "Activity", "setting": "[2]", "value": 37.87, "unit": "g"}, {"measurement": "Activity", "setting": "[3]", "value": "Toxic"}, {"measurement": "Activity", "setting": "Nakaseomyces glabratus [4]", "value": "Active"}, {"measurement": "Activity", "setting": "Candida albicans [5]", "value": 0, "unit": "log10CFU"}, {"measurement": "Activity", "setting": "[6]", "value": 13.58, "unit": "g"}, {"measurement": "Activity", "setting": "[7]", "value": 5.19, "unit": "g"}, {"measurement": "MFC", "setting": "Candida albicans [8]", "value": 7.8, "unit": "µg/mL"}, {"measurement": "Activity", "setting": "[9]", "value": "Non-Toxic"}, {"measurement": "Activity", "setting": "[10]", "value": 45.03, "unit": "g"}, {"measurement": "Activity", "setting": "Candida albicans [11]", "value": "Dose-dependent effect"}, {"measurement": "Activity", "setting": "Candida albicans [12]", "value": 1.78, "unit": "log10CFU"}, {"measurement": "Activity", "setting": "[13]", "value": 5.39, "unit": "g"}, {"measurement": "MFC", "setting": "Candida albicans [14]", "value": 1.95, "unit": "µg/mL"}, {"measurement": "Activity", "setting": "[15]", "value": "Non-Toxic"}, {"measurement": "MIC", "setting": "Candida albicans [16]", "value": 7.8, "unit": "µg/mL"}, {"measurement": "MIC", "setting": "Candida albicans [17]", "value": 7.8, "unit": "µg/mL"}, {"measurement": "Activity", "setting": "Candida albicans [18]", "value": "Active"}, {"measurement": "Activity", "setting": "Candida albicans [19]", "value": 0, "unit": "log10CFU"}, {"measurement": "Activity", "setting": "Candida albicans [20]", "value": 0, "unit": "log10CFU"}, {"measurement": "Activity", "setting": "[21]", "value": 2.93, "unit": "g"}, {"measurement": "Activity", "setting": "[22]", "value": 6.01, "unit": "g"}, {"measurement": "MIC", "setting": "Candida albicans [23]", "value": 7.8, "unit": "µg/mL"}, {"measurement": "Activity", "setting": "[24]", "value": 5.57, "unit": "g"}, {"measurement": "Activity", "setting": "Candida tropicalis", "value": "Active"}, {"measurement": "Activity", "setting": "[25]", "value": 44.68, "unit": "g"}, {"measurement": "Activity", "setting": "[26]", "value": "Non-Toxic"}, {"measurement": "Activity", "setting": "[27]", "value": "Non-Toxic"}, {"measurement": "MFC", "setting": "Candida albicans [28]", "value": 7.8, "unit": "µg/mL"}, {"measurement": "MIC", "setting": "Candida albicans [29]", "value": 7.8, "unit": "µg/mL"}, {"measurement": "MFC", "setting": "Candida albicans [30]", "value": 7.8, "unit": "µg/mL"}, {"measurement": "MFC", "setting": "Nakaseomyces glabratus [31]", "value": 7.8, "unit": "µg/mL"}, {"measurement": "Activity", "setting": "[32]", "value": 5.33, "unit": "g"}, {"measurement": "Activity", "setting": "[33]", "value": "Non-Toxic"}]}]}
